For data set [1], the system named is MDA-MB-468 breast cancer cells. Put plainly: PRL-induced invasion of breast cancer cells, Boyden chambers. Type of data set: cell-based. The note with it: 1 μM. The method, then: (§1) FIG. 1A. Bar graph showing inhibition of PRL-induced invasion of breast cancer cells by SMI-1 and SMI-6; FIG. 1B. Bar graph showing only minimal cytotoxicity at indicated concentrations.
(§2) Both SMI-1 and SMI-6 at 1 μM concentrations abrogated PRL-induced invasion of MDA-MB-468 breast cancer cells, using Boyden chambers (FIG. 1A).

The test system of data set [2] is MDA-MB-468 breast cancer cells. Put plainly: LDH cytotoxicity assay. Type of data set: cell-based. The note with it: especially at 10-fold higher doses. As to the method:
as §1, §2

For another data set, the system named is Jurkat human lymphocytes. Put plainly: Autocrine PRL-dependent BrdU uptake (cell proliferation) by flow cytometry. Type of data set: cell-based. The note with it: for cell proliferation (BrdU uptake) driven by autocrine PRL: 1 μM SMI 24 hrs in 2% charcoal-stripped serum, then 1 nM PRL 24 hrs. The method, then:
FIG. 2. Bar graph showing suppression of autocrine PRL-dependent BrdU uptake in Jurkat lymphocytes by […] of each SMI, as determined by flow cytometry; the top panel indicates percent of live cells.
To examine whether the SMIs can suppress cell proliferation that is driven by autocrine PRL, Jurkat human lymphocytes were utilized, which produce large amounts of autocrine PRL. Autocrine PRL in lymphocytes is well known to promote cell proliferation. The cells were incubated for 24 hrs in 2% charcoal-stripped serum (which is devoid on exogenous lactogenic hormones) with 1 μM of SMI-1 or SMI-6, and then with 1 nM PRL for 24 hrs. BrdU uptake was analyzed by flow cytometry.
A general note: In flow cytometry, cells or beads pass a laser one at a time.

Data set [3] concerns postoperative thermal pain. Briefly: Thermal nociception (heat hyperalgesia, paw withdrawal latency) after hind paw surgery. Type of data set: in vivo. As to conditions: female mice. The method, then:
FIG. 3. […] Female mice were operated on the right hind paw. One day after surgery, 5 μg SMI-6 was applied either peripherally or centrally/spinally (5 μg or 25 μg) and mice were subjected to thermal nociception or mechanical allodynia (increased sensitization to tactile stimuli). […] SMI-6 at the 25 μg dose was effective in alleviating thermal pain by as much as 75%.

The subject of data set [4] is postoperative mechanical pain. Put plainly: Mechanical allodynia (anesthesiometer, withdrawal threshold) after hind paw surgery. Type of data set: in vivo. As to conditions: female mice, one day after surgery; 5 μg peripherally, 5 μg or 25 μg spinally. As to the method: FIG. 4. […] BL—baseline: POP—postoperative pain; SMI-6 was applied either peripherally ([…]), or spinally ([…]); each value is a mean±SME of 6 mice/treatment. Female mice were operated on the right hind paw. One day after surgery, 5 μg SMI-6 was applied either peripherally or centrally/spinally (5 μg or 25 μg) and mice were subjected to thermal nociception or mechanical allodynia (increased sensitization to tactile stimuli). […] SMI-6 at the 25 μg dose was effective in alleviating thermal pain by as much as 75%. For evaluating allodynia, an anesthesiometer was used, which applied a constant ramp of increasing mechanical pressure to the injured paw. […] was measured in grams.

As for `Cn1nc(Nc2ccc(Cl)cc2O)c(N)nc1=O` [SMI-1], the “PRL-induced invasion of MDA-MB-468 breast cancer cells” value in data set [1] is reported as “abrogated”. Further, the “toxicity in LDH cytotoxicity assay” value in data set [2] is given as “minimal toxicity”. Moreover, the “cell proliferation (BrdU uptake) driven by autocrine PRL” value with Jurkat human lymphocytes is “completely blocked”.
As for `CCN(CC)c1ccc(/C=N/NC(=O)c2c(Cl)cnn2C)c(O)c1` [SMI-6], the “PRL-induced invasion of MDA-MB-468 breast cancer cells” value in data set [1] was “abrogated”. For the same molecule, the “toxicity in LDH cytotoxicity assay” value in data set [2] was “minimal toxicity”. In the data set with Jurkat human lymphocytes, the “cell proliferation (BrdU uptake) driven by autocrine PRL” value was “completely blocked”. The “alleviation of thermal pain” value in data set [3] (25 μg dose) is at most 75%. Further, the “alleviation of thermal pain (leg withdrawal latency), dose dependence” value in data set [3] (one day after surgery, 5 μg peripherally, 5 μg or 25 μg spinally) is “dose-dependent alleviation”. For the same molecule, in data set [4], the “abrogation of mechanical pain (allodynia, withdrawal threshold)” value is recorded as “equally as effective”.

B1: PRL: 25 kDa hormone produced by the anterior pituitary (protein, UniProt P01236 29-227, looked up)
Prolactin: LPICPGGAARCQVTLRDLFDRAVVLSHYIHNLSSEMFSEFDKRYTHGRGFITKAINSCHTSSLATPEDKEQAQQMNQKDFLSLIVSILRSWNEPLYHLVTEVRGMQEAPEAILSKAVEIEEQTKRLLEGMELIVSQVHPETKENEIYPVWSGLPSLQMADEESRLSAYYNLLHCLRRDSHKIDNYLKLLKCRIIHNNNC
On to B1, for which the “effect of added PRL on BrdU uptake” value in the data set on Jurkat human lymphocytes (1 nM PRL for 24 hrs) is given as “no effect”.

The values above are taken from patent US11834423B2, “Small molecule prolactin receptor inhibitors, pharmaceutical compositions and treatment methods using such inhibitors” (University of Cincinnati, priority 2016, dated 2023).
